The values below come from the supplement of paper PMC10307832.

Holding throughout (test): relative viability (nuclei count vs DMSO), 5 days (fraction); higher = more cells survive
Compound in one test: CC(C)(C)c1nc(-c2cccc(NS(=O)(=O)c3c(F)cccc3F)c2F)c(-c2ccnc(N)n2)s1 [Dabrafenib]
In a few lines: (§1)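 Five library-drug doses, separated by factors of √10, were pinned into 1536-well plates holding lung cancer cell lines after an overnight stay at 37 °C. Cells were fixed, permeabilised and Hoechst-stained in one step after 5 days without medium change, then imaged at 4×. Viability compares treated-well with vehicle-well nuclei, counted in MetaXpress, as a median across plates. Passing plates had control CV below 25% and at least one doubling.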

Compound in a further test: NC(=O)c1ccc(N(C(N)=O)c2c(F)cccc2F)nc1-c1ccc(F)cc1F [VX-702]
A digest of the protocol: as §1

Compound in the test “Dabrafenib + Alpelisib”: CC(C)(C)c1nc(-c2cccc(NS(=O)(=O)c3c(F)cccc3F)c2F)c(-c2ccnc(N)n2)s1 [Dabrafenib] + Cc1nc(NC(=O)N2CCC[C@H]2C(N)=O)sc1-c1ccnc(C(C)(C)C(F)(F)F)c1 [Alpelisib] (partner 2 µM)
In a few lines: (§2)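 The day after seeding in 1536-well plates, lung cancer cell lines were treated by pin tool with a single drug, or with a fixed anchor-drug dose together with five library-drug doses (not always all listed) in √10 steps. After 5 days, a combined fix-and-stain solution (final 0.05% Triton X-100, 1% formaldehyde, 1 ug/ml Hoechst) was added. Nuclei counted on 4× images gave relative viability as treated counts over vehicle counts, reported as the median of duplicate plates.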

Compound in the test “VX-702 + Pemetrexed”: NC(=O)c1ccc(N(C(N)=O)c2c(F)cccc2F)nc1-c1ccc(F)cc1F [VX-702] + Nc1nc2[nH]cc(CCc3ccc(C(=O)N[C@@H](CCC(=O)O)C(=O)O)cc3)c2c(=O)[nH]1 [Pemetrexed] (partner 0.2 µM)
A digest of the protocol:
as §2

As to EKVX, the relative viability with Dabrafenib (0.003 µM) is 0.693; with Dabrafenib (0.009487 µM) it was 1.03; with Dabrafenib (0.03 µM), 0.932; with Dabrafenib (0.09487 µM) it was 0.941; in the test with Dabrafenib (0.3 µM), 1.14; with VX-702 (0.02 µM), 0.95. In addition, the relative viability in the test with VX-702 (0.2 µM) worked out at 0.863; with VX-702 (0.6325 µM), 0.891; with VX-702 (2 µM), 0.923; with Dabrafenib + Alpelisib (first compound 0.003 µM), 0.923; with Dabrafenib + Alpelisib (first compound 0.009487 µM), 1.05; with Dabrafenib + Alpelisib (first compound 0.03 µM), 0.889. Besides, the relative viability is 0.682 in the test with Dabrafenib + Alpelisib (first compound 0.09487 µM); 1.07 with Dabrafenib + Alpelisib (first compound 0.3 µM); 0.463 in the test with VX-702 + Pemetrexed (first compound 0.02 µM); 0.345 with VX-702 + Pemetrexed (first compound 0.2 µM); 0.38 with VX-702 + Pemetrexed (first compound 0.6325 µM); 0.431 with VX-702 + Pemetrexed (first compound 2 µM).

For EMC-BAC-2, the relative viability in the test with Dabrafenib (0.009487 µM) came to 1.04; with Dabrafenib (0.03 µM), 0.706; with Dabrafenib (0.09487 µM) it was 0.701; in the test with Dabrafenib (0.3 µM) it was 0.751; with VX-702 (0.02 µM), 1; in the test with VX-702 (0.2 µM) it was 0.943. In addition, the relative viability worked out at 0.98 with VX-702 (0.6325 µM); 0.842 with VX-702 (2 µM); 0.744 with Dabrafenib + Alpelisib (first compound 0.003 µM); 0.746 with Dabrafenib + Alpelisib (first compound 0.009487 µM); 0.574 with Dabrafenib + Alpelisib (first compound 0.03 µM); 0.666 in the test with Dabrafenib + Alpelisib (first compound 0.09487 µM). Moreover, the relative viability with Dabrafenib + Alpelisib (first compound 0.3 µM) stood at 0.784; in the test with VX-702 + Pemetrexed (first compound 0.02 µM), 0.472; with VX-702 + Pemetrexed (first compound 0.2 µM) it was 0.436; with VX-702 + Pemetrexed (first compound 0.6325 µM) it was 0.407; with VX-702 + Pemetrexed (first compound 2 µM) it was 0.416.

On to EPLC-272H, for which the relative viability is 0.509 in the test with Dabrafenib (0.003 µM); 1.01 with Dabrafenib (0.009487 µM); 0.971 in the test with Dabrafenib (0.03 µM); 0.785 with Dabrafenib (0.09487 µM); 0.964 with Dabrafenib (0.3 µM); 1.03 with VX-702 (0.02 µM). Further, the relative viability turned out to be 0.827 in the test with VX-702 (0.2 µM); 1.02 in the test with VX-702 (0.6325 µM); 1.01 with VX-702 (2 µM); 1.1 with Dabrafenib + Alpelisib (first compound 0.009487 µM); 0.843 with Dabrafenib + Alpelisib (first compound 0.03 µM); 0.962 with Dabrafenib + Alpelisib (first compound 0.09487 µM). For the same cell line, the relative viability in the test with Dabrafenib + Alpelisib (first compound 0.3 µM) amounted to 0.864; in the test with VX-702 + Pemetrexed (first compound 0.02 µM) it was 0.354; in the test with VX-702 + Pemetrexed (first compound 0.2 µM) it was 0.402; with VX-702 + Pemetrexed (first compound 0.6325 µM), 0.318; with VX-702 + Pemetrexed (first compound 2 µM), 0.403.

For H3255, the relative viability with Dabrafenib (0.003 µM) worked out at 0.868; in the test with Dabrafenib (0.009487 µM) it was 1.05; with Dabrafenib (0.03 µM) it was 0.992; in the test with Dabrafenib (0.09487 µM), 0.873; with Dabrafenib (0.3 µM), 1.04; in the test with VX-702 (0.02 µM) it was 0.978. In addition, the relative viability turned out to be 0.966 with VX-702 (0.2 µM); 0.96 with VX-702 (0.6325 µM); 1.05 in the test with VX-702 (2 µM); 0.647 with Dabrafenib + Alpelisib (first compound 0.003 µM); 0.813 with Dabrafenib + Alpelisib (first compound 0.009487 µM); 0.684 with Dabrafenib + Alpelisib (first compound 0.03 µM). The relative viability with Dabrafenib + Alpelisib (first compound 0.09487 µM) was found to be 0.669; with Dabrafenib + Alpelisib (first compound 0.3 µM), 0.664; with VX-702 + Pemetrexed (first compound 0.02 µM), 0.565; with VX-702 + Pemetrexed (first compound 0.2 µM), 0.612; with VX-702 + Pemetrexed (first compound 0.6325 µM), 0.551; with VX-702 + Pemetrexed (first compound 2 µM), 0.599.

On to HARA, for which the relative viability stood at 0.737 with Dabrafenib (0.003 µM); 1 with Dabrafenib (0.009487 µM); 0.922 in the test with Dabrafenib (0.09487 µM); 1.12 with Dabrafenib (0.3 µM); 0.964 in the test with VX-702 (0.02 µM); 0.897 with VX-702 (0.2 µM). The relative viability is 0.965 in the test with VX-702 (0.6325 µM); 0.969 with VX-702 (2 µM); 0.669 in the test with Dabrafenib + Alpelisib (first compound 0.003 µM); 0.89 with Dabrafenib + Alpelisib (first compound 0.009487 µM); 0.646 with Dabrafenib + Alpelisib (first compound 0.03 µM); 0.732 in the test with Dabrafenib + Alpelisib (first compound 0.09487 µM). Also, the relative viability with Dabrafenib + Alpelisib (first compound 0.3 µM) was 1.09; with VX-702 + Pemetrexed (first compound 0.02 µM), 0.235; in the test with VX-702 + Pemetrexed (first compound 0.6325 µM) it was 0.277; with VX-702 + Pemetrexed (first compound 2 µM) it was 0.256.

In the case of HCC-15, the relative viability with Dabrafenib (0.003 µM) worked out at 0.942; with Dabrafenib (0.009487 µM), 1.04; with Dabrafenib (0.03 µM) it was 1.04; with Dabrafenib (0.09487 µM) it was 0.928; with Dabrafenib (0.3 µM), 0.921; in the test with VX-702 (0.02 µM), 0.989. Further, the relative viability in the test with VX-702 (0.2 µM) was found to be 0.982; with VX-702 (0.6325 µM), 1.08; in the test with VX-702 (2 µM), 1.03; with Dabrafenib + Alpelisib (first compound 0.003 µM) it was 0.831; with Dabrafenib + Alpelisib (first compound 0.009487 µM) it was 0.971; with Dabrafenib + Alpelisib (first compound 0.03 µM), 0.909. The relative viability with Dabrafenib + Alpelisib (first compound 0.09487 µM) is 0.912; with Dabrafenib + Alpelisib (first compound 0.3 µM), 0.893; with VX-702 + Pemetrexed (first compound 0.02 µM), 0.223; with VX-702 + Pemetrexed (first compound 0.2 µM), 0.22; with VX-702 + Pemetrexed (first compound 0.6325 µM) it was 0.227; in the test with VX-702 + Pemetrexed (first compound 2 µM), 0.248.

Turning to HCC-44, the relative viability is 0.885 in the test with Dabrafenib (0.003 µM); 0.971 with Dabrafenib (0.009487 µM); 1.01 with Dabrafenib (0.03 µM); 0.921 in the test with Dabrafenib (0.09487 µM); 0.933 with Dabrafenib (0.3 µM); 1.05 in the test with VX-702 (0.02 µM). For the same cell line, the relative viability with VX-702 (0.2 µM) was determined as 0.979; with VX-702 (0.6325 µM), 1.08; in the test with VX-702 (2 µM) it was 1.05; with Dabrafenib + Alpelisib (first compound 0.003 µM), 0.751; with Dabrafenib + Alpelisib (first compound 0.009487 µM), 0.792; with Dabrafenib + Alpelisib (first compound 0.03 µM), 0.789. Further, the relative viability came out at 0.732 with Dabrafenib + Alpelisib (first compound 0.09487 µM); 0.807 with Dabrafenib + Alpelisib (first compound 0.3 µM); 0.615 in the test with VX-702 + Pemetrexed (first compound 0.02 µM); 0.652 with VX-702 + Pemetrexed (first compound 0.2 µM); 0.653 with VX-702 + Pemetrexed (first compound 0.6325 µM); 0.678 with VX-702 + Pemetrexed (first compound 2 µM).

Take HCC-78: the relative viability was 1.03 with Dabrafenib (0.009487 µM); 0.932 with Dabrafenib (0.03 µM); 0.816 with Dabrafenib (0.09487 µM); 1.05 in the test with Dabrafenib (0.3 µM); 0.947 with VX-702 (0.02 µM); 0.878 with VX-702 (0.2 µM). Besides, the relative viability stood at 0.98 in the test with VX-702 (0.6325 µM); 1.07 with VX-702 (2 µM); 0.445 in the test with Dabrafenib + Alpelisib (first compound 0.009487 µM); 0.346 with Dabrafenib + Alpelisib (first compound 0.03 µM); 0.305 with Dabrafenib + Alpelisib (first compound 0.09487 µM); 0.332 with Dabrafenib + Alpelisib (first compound 0.3 µM). Moreover, the relative viability in the test with VX-702 + Pemetrexed (first compound 0.02 µM) is 0.874; with VX-702 + Pemetrexed (first compound 0.2 µM), 0.883; with VX-702 + Pemetrexed (first compound 0.6325 µM), 0.901; in the test with VX-702 + Pemetrexed (first compound 2 µM), 0.889.
